Test results from PMC12046717 (Acta Neuropathologica Communications, 2025).

Columns and labels:
SW1573 cells [1] = test: CyQUANT cell proliferation assay; format: cell-based; conditions: Homo sapiens, SW1573, 120 h
Protocol: (§1) Human NSCLC cell lines, SW1573 and H2122 cells, were obtained from the American Type Culture Collection. Both cell lines carry a KRAS G12C mutation and CDKN2A homozygous deletion. The cell lines were authenticated by short tandem fingerprinting in 2022 and periodically tested to be Mycoplasma-free. H2122 cells were cultured in RPMI-1640 supplemented with 10% fetal bovine serum. SW1573 cells were maintained in DMEM supplemented with 5% FBS. Both cell lines were cultured at 37 °C in a 5% CO2-humidified atmosphere and passaged when they reached 80–90% confluence. Cells were transduced with a lentivirus vector carrying cDNA coding for firefly luciferase and mCherry to generate SW1573-FmC and H2122-FmC for in vivo studies.

H2122 cells [2] = test: CyQUANT cell proliferation assay; format: cell-based, human; conditions: 120 h drug exposure
Protocol: as §1

H2122-FmC cells = test: CyQUANT cell proliferation assay, FmC-transduced cells; format: cell-based; conditions: Homo sapiens, 120h drug exposure
Protocol: as §1, with “studies. […]” for “studies.”
(§2) cell viability of firefly-luciferase and mCherry (FmC)-transduced NSCLC cells.
(§3) A, Image representing cell line transduction procedures, involving overnight exposure with a lentivirus vector expressing Firefly luciferase and mCherry. B, C, CellTiter-Glo and CyQUANT […]
(§4) Highest Single Agent model analysis in SW1573-FmC (D) and H2122-FmC (E) cell lines (96h […]
(§5) HSA synergy and antagonism

SW1573-FmC cells = test: as above; format: cell-based; conditions: Homo sapiens, 120h drug exposure
Protocol: as §1, with “studies. […]” for “studies.”
as §2, §3, §4, §5

[3] = system: phospho-ERK (p-ERK) in SW1573 cells; test: Western blot of phospho-ERK; format: cell-based, human; conditions: 48 h, 1,000 nM adagrasib and/or 1,000 nM abemaciclib
[4] = system: p-Rb (Ser807/811) in H2122 cells; test: Western blot of phospho-Rb; format: cell-based, human; conditions: 24 h exposure
Protocol: (§6) Cells and tissues were lysed in RIPA lysis buffer (Pierce). The protein concentration was measured using Bradford assay (BioRad). Protein lysates were separated by Mini-PROTEAN TGX gel electrophoresis (BioRad) and subsequently transferred to PVDF membranes (BioRad) for immunoblotting analysis. The membrane was blocked with 5% non-fat skim milk in Tris-buffered saline with tween. Incubation in diluted primary antibodies was conducted overnight and diluted horseradish peroxidase-conjugated secondary antibodies were subsequently applied. Immunoreactive bands were detected using ECL substrate reagent (BioRad), and the membrane was developed using a ChemiDoc XRS + system (BioRad). Primary antibodies used were against: phospho-ERK (Cell Signaling Technology (CST), 4370), ERK (CST, 9102), phospho-Rb (Ser807/811, CST, 8516), β-actin (CST, 3700), and vinculin (Millipore Sigma, 05–386).

[5] = system: p-Rb (Ser807/811) in SW1573 cells; test: Western blot of phospho-Rb; format: cell-based, human; conditions: 24 h exposure
Protocol: as §6

H2122 cells [6] = test: Flow cytometry cell cycle analysis; format: cell-based, human; conditions: 24 h drug exposure
Protocol: (§7) Cells were harvested, washed with PBS, and fixed in 2% paraformaldehyde. After the samples were prepared for analysis, fixed cells were resuspended in media and incubated with Vybrant DyeCycle Violet stain (ThermoFisher) for 30 min at 37 °C while protected from light. Flow cytometry was conducted using LSR II Cytometer (BD Biosciences) and analysis was done with FlowJo software and the Dean Jett-Fox algorithm.

SW1573 cells [7] = test: Flow cytometry cell cycle analysis; format: cell-based, human; conditions: 24 h drug exposure
Protocol: as §7

[8] = system: caspase 3/7 in SW1573 cells; test: Caspase 3/7-Glo cell death assay; format: cell-based, human; conditions: 48 h, 1,000 nM adagrasib, 1,000 nM abemaciclib, alone or combined
Protocol: (§8) For the caspase 3/7 assay, differences in luminescence signals (from control) were determined using One-Way ANOVA. Differences in BLI radiance were tested for statistical significance using the One-Way ANOVA comparison. Statistical comparisons between two groups were considered significant when the adjusted P value was below 0.05 (P < 0.05). Kaplan–Meier analysis and log-rank test were used for the analysis of animal overall survival, comparing the groups.

[9] = system: H2122-FmC intracranial tumors; test: Intracranial xenograft efficacy study (BLI, survival, body weight); format: in vivo, female nude (athymic) mice; conditions: H2122-FmC model
Protocol: (§9) All the animal studies were conducted in compliance with all applicable regulations and guidelines of the Institutional Animal Care and Use Committee. Six-to-eight-week-old female nude (athymic) mice were obtained from Charles River Laboratory and maintained under pathogen-free conditions, with food and water provided ad libitum. Mice were implanted intracranially with SW1573-FmC (2 × 10^5 in 2 μL serum-free media) or H2122-FmC cells (1.5 × 10^5 in 2 μL serum-free media) in the right striatum region under general anesthesia using stereotactic procedures as previously described. Animal health was monitored daily.
(§10) Animals were humanely euthanized when > 20% body weight loss or > 15% body weight loss plus neurological signs was noted. Survival data were collected for each group and analyzed using the Kaplan–Meier method. Survival duration by group was tested for statistical significance using the Gehan-Breslow-Wilcoxon test with False Discovery Rate correction. Statistical comparisons were considered significant when the adjusted P value was below 0.05 (P < 0.05).
(§11) Animals were injected intraperitoneally with luciferin (150 mg/kg, 0.01 mL/g) based on body weight and anesthetized using 1–2% isoflurane in oxygen at 1–2 L/minute. Images were acquired beginning at 7 min after luciferin injection for three time points (7, 15, and 30 min). Region of interest (ROI) analysis was completed on BLI images using AURA software (Spectral Instrument Imaging). BLI images were generated by overlaying BLI signals for each animal onto their respective white-light images for anatomic reference. Brain ROIs were generated using a fixed area circle and were placed based on the BLI signal in the relevant area, using the photographic anatomical reference images. BLI signals in images were scaled in units of radiance (photons per second per […] per steradian). Prism 9 software (Graph Pad) was used to generate relevant plots based on the in vivo quantification.
as §8

[10] = system: SW1573-FmC intracranial tumors; test: as above; format: in vivo, female nude (athymic) mice; conditions: SW1573-FmC model
Protocol: as §9, §10, §11, §8

[11] = system: SW1573-FmC intracranial tumors; test: Pharmacodynamic immunohistochemistry of brain tumors; format: in vivo, mice; conditions: SW1573-FmC xenograft, 3 days treatment
Description: Formalin-fixed paraffin-embedded Sects. (7-μm thickness) were subjected to immunohistochemistry according to the methods described previously. Primary antibodies used included those directed at: p-ERK (CST), p-Rb (CST), Ki67 (Dako, MIB1) and Cleaved caspase 3 (CST, 9661). Immuno-positive cells and negative cells within tumor tissues were counted and the fraction of positive cells determined.

human p-gp = human p-gp ref 6, 34; cited from earlier work
[12] = clinically ref 23; cited from earlier work
human CYP3A4 = conditions: cited from earlier work
[13] = Pharmacokinetic study, plasma and brain concentration by LC-MS/MS; conditions: H2122-FmC and SW1573-FmC tumor-bearing mice, oral adagrasib 75 mg/kg BID or abemaciclib 50 mg/kg QD for three days, 1 h after last dose
[14] = parameters: method as in PMID 31658955; conditions: cited from earlier work
[15] = system: progressive BM with CDK pathway alterations; conditions: patients with progressive BM with CDK pathway alterations ref 21; cited from earlier work

CCN1CCN(Cc2ccc(Nc3ncc(F)c(-c4cc(F)c5nc(C)n(C(C)C)c5c4)n3)nc2)CC1 [abemaciclib]
IC50 (SW1573 cells [1]; 120-h drug exposure): 1000 nM
IC50 (SW1573 cells [1]; 120 h drug exposure): 833 nM
IC50 (H2122 cells [2]): 626 nM
IC50 (H2122 cells [2]; Homo sapiens, NCI-H2122, 120 h): 600 nM
IC50 (H2122-FmC cells): 518 nM
IC50 (SW1573-FmC cells): 1000 nM
Effect on p-ERK (immunoblot, co-treatment experiment) [3]: modestly suppressed p-ERK
Effect on p-Rb (Ser807 and Ser811, immunoblot) [4]: dose-dependent inhibition of p-Rb
Effect on p-Rb (Ser807 and Ser811, immunoblot) [5]: dose-dependent inhibition of p-Rb
Effect on cell cycle phase fractions (H2122 cells [6]): significantly increased the fraction of G1 phase and decreased the fractions of S and G2 phases
Effect on cell cycle phase fractions (SW1573 cells [7]): significantly increased the fraction of G1 phase and decreased the fractions of S and G2 phases
Caspase 3/7 activity [8]: did not significantly provoke activation of caspase 3/7
Animal survival (Kaplan–Meier) vs control ([9]; 5-week treatment, adagrasib 75 mg/kg BID, abemaciclib 50 mg/kg QD): no survival efficacy
BLI post-treatment signals vs control ([9]; day 40, no statistical significance): signals comparable to the control
Overall survival (Kaplan–Meier) ([10]; 5-week treatment, animals with pre-treatment spinal disease excluded): did not show survival benefit
Overall survival (Kaplan–Meier), all animals included ([10]; comparison of the groups, including animals with spinal disease): No statistical significance
BLI signal intensity (radiance) vs vehicle ([10]; day 40, adagrasib 75 mg/kg BID, abemaciclib 50 mg/kg QD, animals with pre-treatment spinal disease excluded): lower average BLI compared to the vehicle, without statistical significance
Cleaved caspase 3 (C-Cas3) positivity in tumor (IHC) [11]: very few C-Cas3 positive cells
p-ERK-positive cells in tumor (IHC) [11]: decreased p-ERK-positive cells
p-Rb-positive cells in tumor (IHC) [11]: modestly decreased P-Rb immunopositivity
P-gp-mediated efflux interaction (human p-gp): substrates and inhibitors of human p-gp-mediated efflux
CSF versus plasma concentrations [12]: comparable concentrations in the CSF and plasma
CYP3A4 interaction (human CYP3A4): substrate of CYP3A4
Concentration in brain [13]: 200 to 300 ng/mL
Concentration in plasma [13]: 290 to 400 ng/mL

C=C(F)C(=O)N1CCN(c2nc(OC[C@@H]3CCCN3C)nc3c2CCN(c2cccc4cccc(Cl)c24)C3)C[C@@H]1CC#N [adagrasib]
Cleaved caspase 3 (C-Cas3) positivity in tumor (IHC) [11]: trend of increased positivity
p-ERK-positive cells in tumor (IHC) [11]: decrease of p-ERK-positive cells
p-Rb-positive cells in tumor (IHC) [11]: decreased p-Rb-positive cells
Half-life [14]: 24 h
P-gp-mediated efflux interaction (human p-gp): substrates and inhibitors of human p-gp-mediated efflux
CYP3A4 interaction (human CYP3A4): time-dependent inhibition of human CYP3A4

CC(=O)c1c(C)c2cnc(Nc3ccc(N4CCNCC4)cn3)nc2n(C2CCCC2)c1=O [palbociclib]
Intracranial activity in patients [15]: demonstrated intracranial activity
